According to patent publication US7223837B2, “Elongated and multiple spacers in activatible prodrugs” (Syntarga B.V., priority 2001, dated 2007):
≈ marks a conversion by molar mass, not a printed value.

Columns and labels:
IGROV = assay: Anti-proliferative effect, SRB test; assay type: cell-based, human; conditions: IGROV ovarian cancer, 5 days of incubation
Description: (§1) The anti-proliferative effect of prodrugs and parent drugs was determined in vitro applying seven well-characterised human tumor cell lines and the microculture sulphorhodamine B (SRB) test. The anti-proliferative effects were determined and expressed as IC50 values, that are the (pro)drug concentrations that gave 50% inhibition when compared to control cell growth after 5 days of incubation.

WIDR = assay: Anti-proliferative effect, SRB test; assay type: cell-based, human; conditions: WIDR colon cancer, 5 days of incubation
Description: as §1

A498 = assay: Anti-proliferative effect, SRB test; assay type: cell-based, human; conditions: A498 renal cancer, 5 days of incubation
Description: as §1

M19 = assay: Anti-proliferative effect, SRB test; assay type: cell-based, human; conditions: M19 melanoma, 5 days of incubation
Description: as §1

H226 = assay: Anti-proliferative effect, SRB test; assay type: cell-based, human; conditions: H226 non-small cell lung cancer, 5 days of incubation
Description: as §1

EVSA-T = assay: Anti-proliferative effect, SRB test; assay type: cell-based, human; conditions: EVSA-T breast cancer, 5 days of incubation
Description: as §1

MCF-7 = assay: Anti-proliferative effect, SRB test; assay type: cell-based, human; conditions: MCF-7 breast cancer, 5 days of incubation
Description: as §1

[1] = Stability of prodrugs in 0.1 M Tris/HCl buffer (pH 7.3); conditions: TLC
[2] = absence of zinc powder, methanol/acetic acid, same conditions
Description: 36 mg of 2′-[nitrocinnamyl carbonate]-paclitaxel 1 was dissolved in 8 ml methanol and 2 ml acetic acid. A catalytic amount of zinc powder was added and the red mixture was stirred for 12 h. Dichloromethane was added and the organic layer was washed with saturated sodium bicarbonate, 0.5 N potassium bisulfate, brine, and water and dried over anhydrous sodium sulfate.

[3] = 150 μM in 0.1 M Tris/HCl buffer (pH 7.3), 3 days

Molecule	ID50 (IGROV)	ID50 (WIDR)	ID50 (A498)	ID50 (M19)	ID50 (H226)	ID50 (EVSA-T)	ID50 (MCF-7)	formation of degradation products [1, 3]	paclitaxel release without reduction [2]	formation of degradation products ([1]; 100–270 μM in 0.1 M Tris/HCl buffer (pH 7.3), 90 hours)
2′-[H-D-Ala-Phe-Lys-PABC-N(Me)—(CH2)2—N(Me)CO]-paclitaxel (.2HCl) [Prodrug 43]	0.499 mg/L	0.117 mg/L	0.681 mg/L	0.096 mg/L	0.062 mg/L	0.119 mg/L	0.06 mg/L	no formation of degradation products	–	–
COc1cccc2c1C(=O)c1c(O)c3c(c(O)c1C2=O)C[C@@](O)(C(=O)CO)C[C@@H]3O[C@H]1C[C@H](N)[C@H](O)[C@H](C)O1 [Doxorubicin, doxorubicin, reference compound]	0.06 mg/L (≈ 0.11 µM)	0.011 mg/L (≈ 0.0202 µM)	0.09 mg/L (≈ 0.166 µM)	0.016 mg/L (≈ 0.0294 µM)	0.199 mg/L (≈ 0.366 µM)	0.008 mg/L (≈ 0.0147 µM)	0.01 mg/L (≈ 0.0184 µM)	–	–	–
CC(=O)O[C@H]1C(=O)[C@@]2(C)[C@H]([C@H](OC(=O)c3ccccc3)[C@]3(O)C[C@H](OC(=O)[C@H](O)[C@@H](NC(=O)c4ccccc4)c4ccccc4)C(C)=C1C3(C)C)[C@]1(OC(C)=O)CO[C@@H]1C[C@@H]2O [Paclitaxel, paclitaxel, reference compound]	0.01 mg/L (≈ 0.0117 µM)	<0.003 mg/L	<0.003 mg/L	<0.003 mg/L	<0.003 mg/L	<0.003 mg/L	<0.003 mg/L	–	–	–
CC(=O)OC1C(=O)C2(C)C(O)CC3OCC3(OC(C)=O)C2C(OC(=O)c2ccccc2)C2(O)CC(OC(=O)C(OC(=O)OCC=Cc3ccc([N+](=O)[O-])cc3)C(NC(=O)c3ccccc3)c3ccccc3)C(C)=C1C2(C)C (stereo not drawn) [Prodrug 1, 2′-[4-nitrocinnamyl carbonate]-paclitaxel]	–	–	–	–	–	–	–	–	no paclitaxel was formed	–
CC(=O)OC1C(=O)C2(C)C(O)CC3OCC3(OC(C)=O)C2C(OC(=O)c2ccccc2)C2(O)CC(OC(=O)C(OC(=O)OCc3ccc(NC(=O)OCc4ccc(NC(=O)C(CCCCN)NC(=O)C(Cc5ccccc5)NC(=O)C(C)N)cc4)cc3)C(NC(=O)c3ccccc3)c3ccccc3)C(C)=C1C2(C)C.Cl.Cl [Prodrug 22, 2′-[H-D-Ala-Phe-Lys-PABC-PABC]-paclitaxel (.2HCl)]	0.022 mg/L	0.005 mg/L	0.025 mg/L	0.007 mg/L	0.007 mg/L	0.005 mg/L	0.011 mg/L	no formation of degradation products	–	–
H-D-Ala-Phe-Lys-PABC-PABC-DOX.5.7HCl [Prodrug 20]	0.896 mg/L	0.627 mg/L	2.303 mg/L	0.302 mg/L	0.503 mg/L	0.546 mg/L	0.242 mg/L	–	–	no formation of degradation products
